The text below walks through data of US20070099915A1, “INHIBITORS OF THE HIV INTEGRASE ENZYME” (PFIZER INC., priority 2005, published 2007).

Experiment [1] has as its system HIV-1. The settings on record: HIV-1 infected patients; S. Little et al., CROI 2005, Abstract 161; cited from earlier work.
Experiment [2] concerns HIV-1 RF virus in CEM-SS cells. Nature of the experiment: HIV-1 cell protection assay (XTT dye reduction). Format: cell-based. In a few lines:
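Infected CEM-SS cultures incubated six days, then XTT with phenazine methosulfate added for 4 h; viability read as formazan absorbance at 450 nm. Formazan expressed as percent of uninfected, compound-free cells; CC50 from uninfected treated cells, therapeutic index as CC50/EC50.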
Background: Tetrazolium assays rely on reduction of a dye to a coloured formazan, in cell work by metabolically active cells.

In experiment [3] the target is T1, Full-length wild type HIV-1 integrase (SF1) (Human immunodeficiency virus type 1 group M subtype B, UniProt P04585).
T1 construct: made in house; host or cells: E. coli BL21 (DE3)
Nature of the experiment: Integrase strand-transfer scintillation proximity assay. Format: biochemical. The settings on record: strand-transfer SPA, 246 nM integrase, 50 nM host DNA, 37° C., 50 min; read-out: IC50. For orientation: Scintillation proximity formats need no separation of bound from free tracer.

The mark [4] stands for this setting: Human immunodeficiency virus 1, 144 h, RF strain of HIV-1, CEM-SS cells, XTT read-out after six days, read-out: EC50.

One may read the pEC50 as the negative decadic logarithm of the EC50, by convention in mol/L. As a reminder, the pIC50 is the negative decadic logarithm of the IC50, by convention in mol/L.

pEC50, pIC50: −log10 of the molar value. Like-named read-outs stand apart in the source and are kept apart here.

For the molecule `O=C(NCc1ccc(F)cc1)c1nc(N2CCCCS2(=O)=O)c2cccnc2c1O` [Example L-000870810], the “clinical efficacy in the treatment of HIV-infected patients” value in experiment [1] is “showed clinical efficacy”. As to `O=C1c2ncc3c(c(CN4C[C@@H](F)[C@H](F)C4)cn3Cc3ccc(F)cc3)c2CCN1O` [Example 72, 1-{[(3R,4R)-3,4-difluoropyrrolidin-1-yl]methyl}-3-(4-fluorobenzyl)-7-hydroxy-3,7,8,9-tetrahydro-6H-pyrrolo[2,3-c]-1,7-naphthyridin-6-one], the pEC50 in experiment [2] (setting [4]) is 9.30. The pIC50 in experiment [3] is 8.05.

On to `COCCOCc1cn(Cc2ccc(F)cc2)c2cnc3c(c12)CCN(O)C3=O` [Example 22, 3-(4-fluorobenzyl)-7-hydroxy-1-[(2-methoxyethoxy)methyl]-3,7,8,9-tetrahydro-6H-pyrrolo[2,3-c]-1,7-naphthyridin-6-one], for which, in experiment [2] (setting [4]), the pEC50 was 8.82. In addition, the pIC50 in experiment [3] was 7.85. In the same order, the values of `O=C1c2ncc3c(c(Br)cn3Cc3ccc(F)cc3)c2CCN1O` [Example 61, 1-bromo-3-(4-fluorobenzyl)-7-hydroxy-3,7,8,9-tetrahydro-6H-pyrrolo[2,3-c]-1,7-naphthyridin-6-one] are 9.49 and 7.77. Regarding `COCCOCCCc1cn(Cc2ccc(F)cc2)c2cnc3c(c12)CCN(O)C3=O` [Example 106, 3-(4-fluorobenzyl)-7-hydroxy-1-[3-(2-methoxyethoxy)propyl]-3,7,8,9-tetrahydro-6H-pyrrolo[2,3-c]-1,7-naphthyridin-6-one], in experiment [2] (setting [4]), the pEC50 is 9.02. Further, the pIC50 in experiment [3] is 7.85. In the same order, the values of `CC(C)COCc1cn(Cc2ccc(F)cc2)c2cnc3c(c12)CCN(O)C3=O` [Example 56, 3-(4-fluorobenzyl)-7-hydroxy-1-(isobutoxymethyl)-3,7,8,9-tetrahydro-6H-pyrrolo[2,3-c]-1,7-naphthyridin-6-one] are 9.49 and 7.96.

On to `CC(NCc1cn(Cc2ccc(F)cc2)c2cnc3c(=O)n(O)ccc3c12)c1ccc(Br)cc1` (stereo not drawn) [Example 36, 1-({[1-(4-bromophenyl)ethyl]amino}methyl)-3-(4-fluorobenzyl)-7-hydroxy-3,7-dihydro-6H-pyrrolo[2,3-c]-1,7-naphthyridin-6-one], for which the pEC50 in experiment [2] (setting [4]) is 8.52. For the same molecule, the pIC50 in experiment [3] was 8.00. For `N#Cc1cc(Cn2ccc3c4c(ncc32)C(=O)N(O)CC4)ccc1F` [Example 88, 2-fluoro-5-[(7-hydroxy-6-oxo-6,7,8,9-tetrahydro-3H-pyrrolo[2,3-c]-1,7-naphthyridin-3-yl)methyl]benzonitrile] the same measures were 9.35 and 8.05. For the molecule `CC(=O)c1cn(Cc2ccc(F)cc2)c2cnc3c(c12)CCN(O)C3=O` [Example 68, 1-acetyl-3-(4-fluorobenzyl)-7-hydroxy-3,7,8,9-tetrahydro-6H-pyrrolo[2,3-c]-1,7-naphthyridin-6-one-methane (1:1)], in experiment [2] (Human immunodeficiency virus 1, CEM-SS, 144 h), the pEC50 was 8.52. In addition, the pIC50 in experiment [3] is 7.92.

Turning to `Cc1cc2c(ncc3c2c(CN2CCCCC2)cn3Cc2ccc(F)cc2)c(=O)n1O` [Example 101, 3-(4-fluorobenzyl)-7-hydroxy-8-methyl-1-(piperidin-1-ylmethyl)-3,7-dihydro-6H-pyrrolo[2,3-c]-1,7-naphthyridin-6-one], in experiment [2] (setting [4]), the pEC50 is 9.34. The pIC50 in experiment [3] was 7.85. For `O=C1c2ncc3c(c(CCN4CCCC4)cn3Cc3ccc(F)cc3)c2CCN1O` [Example 103, 3-(4-fluorobenzyl)-7-hydroxy-1-(2-(pyrrolidin-1-yl)ethyl)-8,9-dihydro-3H-pyrrolo[2,3-c][1,7]naphthyridin-6(7H)-one] the same measures were 7.74 and 7.62.
